Experimental findings from patent US11730720B2, “ALK5 inhibitors” (THERAVANCE BIOPHARMA R&D IP, LLC, priority 2018, dated 2023) are described below.

Some results are limits rather than exact numbers.

The target in assay [1] is T1, recombinant human ALK5 (TGF-βR1) protein (Homo sapiens, UniProt P36897).
T1 construct: purchased Life Technologies PR9075A
T1 sequence (P36897 34-503): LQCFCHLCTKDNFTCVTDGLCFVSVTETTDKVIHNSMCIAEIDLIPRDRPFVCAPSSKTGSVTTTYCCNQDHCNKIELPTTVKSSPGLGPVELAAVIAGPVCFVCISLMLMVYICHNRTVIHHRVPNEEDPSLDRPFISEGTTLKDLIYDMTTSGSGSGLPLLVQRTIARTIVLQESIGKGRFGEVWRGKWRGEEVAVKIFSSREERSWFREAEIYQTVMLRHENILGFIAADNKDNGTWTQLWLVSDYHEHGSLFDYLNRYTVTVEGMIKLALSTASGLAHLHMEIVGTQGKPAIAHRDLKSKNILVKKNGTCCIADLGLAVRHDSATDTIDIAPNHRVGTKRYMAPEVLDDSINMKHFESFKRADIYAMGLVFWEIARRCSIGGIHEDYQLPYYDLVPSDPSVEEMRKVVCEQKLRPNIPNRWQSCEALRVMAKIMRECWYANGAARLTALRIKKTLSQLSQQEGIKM
Description: Biochemical ALK5 (TGF-βR1) assay to measure pKi (LANCE Ultra ULight kinase assay). Particulars: apparent pKi, converted from pIC50 using the Cheng-Prusoff equation. In outline: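 TR-FRET kinase format: compound dose range 10 μM–25 pM equilibrated 60 min with human ALK5 and ULight-labelled topoisomerase 2α peptide in HEPES/MgCl2 buffer pH 7.5 with DTT. Reaction started with ATP (125 μM stock, 5× final), 60 min at 37° C, stopped with EDTA/Eu-anti-phospho antibody; pKi derived from pIC50 via Cheng-Prusoff.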

Assay [2] deals with TGF-β-stimulated SMAD3 phosphorylation in BEAS-2B cells. Description: Cellular ALK5 potency assay, inhibition of TGF-β stimulated pSMAD3 formation in BEAS-2B cells. It is filed as cell-based. Particulars: Homo sapiens, inhibition of TGF-β (10 ng/mL) stimulated pSMAD3 formation, 1 hour compound incubation, read-out: BEAS2B pIC50 (converted). In outline: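 Phospho-SMAD3 was quantified by AlphaLISA in lysates of human lung epithelial BEAS-2B cells. Compound was added 1 h (37 °C, HEPES/BSA-supplemented HBSS) before a 30 min challenge with 10 ng/mL TGF-β. Values are pIC50 relative to stimulated cells without compound.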

With `Fc1cc(F)c(-c2n[nH]cc2-c2ccc3ncc(-c4cn[nH]c4)cc3n2)cc1Cl` [Compound 6-6, 2-[3-(5-chloro-2,4-difluoro-phenyl)-1H-pyrazol-4-yl]-7-(1H-pyrazol-4-yl)-1,5-naphthyridine], in assay [1], the Ki was 0.0398 to 0.316 nM. For the same molecule, in assay [2], the IC50 was ≤ 20 nM.
The matching figures for `Fc1cc(F)c(-c2n[nH]cc2-c2ccc3ncc(NCCN4CCCC4)cc3n2)cc1Cl` [Compound 6-7, 6-[3-(5-chloro-2,4-difluoro-phenyl)-1H-pyrazol-4-yl]-N-(2-pyrrolidin-1-ylethyl)-1,5-naphthyridin-3-amine]: 0.398 to 3.16 nM and 25.1 to 158 nM.
On the same counts, the results for `Fc1cc(F)c(-c2n[nH]cc2-c2ccc3ncc(NCC4CCCCN4)cc3n2)cc1Cl` (stereo not drawn) [Compound 6-8, 6-[3-(5-chloro-2,4-difluoro-phenyl)-1H-pyrazol-4-yl]-N-(2-piperidylmethyl)-1,5-naphthyridin-3-amine] are 0.398 to 3.16 nM and 25.1 to 158 nM.
The matching figures for `Fc1cc(F)c(-c2n[nH]cc2-c2ccc3ncc(NCCN4CCNCC4)cc3n2)cc1Cl` [Compound 6-9, 6-[3-(5-chloro-2,4-difluoro-phenyl)-1H-pyrazol-4-yl]-N-(2-piperazin-1-ylethyl)-1,5-naphthyridin-3-amine]: 0.0398 to 0.316 nM and 25.1 to 158 nM.
Consider `Fc1cc(F)c(-c2n[nH]cc2-c2ccc3ncc(NC4CCNCC4)cc3n2)cc1Cl` [Compound 6-10, 6-[3-(5-chloro-2,4-difluoro-phenyl)-1H-pyrazol-4-yl]-N-(4-piperidyl)-1,5-naphthyridin-3-amine], for which the Ki in assay [1] was 0.0398 to 0.316 nM. For the same molecule, the IC50 in assay [2] was 200 to 1260 nM.
As to `Fc1cc(F)c(-c2n[nH]cc2-c2ccc3ncc(NC[C@H]4CCCCN4)cc3n2)cc1Cl` [Compound 6-11, 6-[3-(5-chloro-2,4-difluoro-phenyl)-1H-pyrazol-4-yl]-N-[[(2R)-2-piperidyl]methyl]-1,5-naphthyridin-3-amine], in assay [1], the Ki is 0.398 to 3.16 nM. The IC50 in assay [2] is 25.1 to 158 nM.
For `Fc1cc(F)c(-c2n[nH]cc2-c2ccc3ncc(NC[C@@H]4CCCCN4)cc3n2)cc1Cl` [Compound 6-12, 6-[3-(5-chloro-2,4-difluoro-phenyl)-1H-pyrazol-4-yl]-N-[[(2S)-2-piperidyl]methyl]-1,5-naphthyridin-3-amine], the Ki in assay [1] is 0.398 to 3.16 nM. In assay [2], the IC50 was 25.1 to 158 nM.
The matching figures for `CC(C)(C)N1CCN(CCNc2cnc3ccc(-c4c[nH]nc4-c4cc(Cl)c(F)cc4F)nc3c2)CC1` [Compound 6-13, N-(2-(4-(tert-butyl)piperazin-1-yl)ethyl)-6-(3-(5-chloro-2,4-difluorophenyl)-1H-pyrazol-4-yl)-1,5-naphthyridin-3-amine]: 0.0398 to 0.316 nM and 25.1 to 158 nM.
On the same counts, the results for `Fc1cc(F)c(-c2n[nH]cc2-c2ccc3ncc(N4CC(N5CCCCC5)C4)cc3n2)cc1Cl` [Compound 6-14, 2-(3-(5-chloro-2,4-difluorophenyl)-1H-pyrazol-4-yl)-7-(3-(piperidin-1-yl)azetidin-1-yl)-1,5-naphthyridine] are 0.0398 to 0.316 nM and 25.1 to 158 nM.
For `CCN1CCC(N(C)c2cnc3ccc(-c4c[nH]nc4-c4cc(Cl)c(F)cc4F)nc3c2)CC1` [Compound 6-15, 6-[3-(5-chloro-2,4-difluoro-phenyl)-1H-pyrazol-4-yl]-N-(1-ethyl-4-piperidyl)-N-methyl-1,5-naphthyridin-3-amine], the Ki in assay [1] was 0.398 to 3.16 nM. For the same molecule, the IC50 in assay [2] was 25.1 to 158 nM.
On the same counts, the results for `CN1CCC(N(C)c2cnc3ccc(-c4c[nH]nc4-c4cc(Cl)c(F)cc4F)nc3c2)CC1` [Compound 6-16, 6-[3-(5-chloro-2,4-difluoro-phenyl)-1H-pyrazol-4-yl]-N-methyl-N-(1-methyl-4-piperidyl)-1,5-naphthyridin-3-amine] are 0.398 to 3.16 nM and 25.1 to 158 nM.
On the same counts, the results for `CN1CCN(C2CCN(c3cnc4ccc(-c5c[nH]nc5-c5cc(Cl)c(F)cc5F)nc4c3)CC2)CC1` [Compound 6-17, 2-[3-(5-chloro-2,4-difluoro-phenyl)-1H-pyrazol-4-yl]-7-[4-(4-methylpiperazin-1-yl)-1-piperidyl]-1,5-naphthyridine] are 0.0398 to 0.316 nM and 25.1 to 158 nM.
On the same counts, the results for `CN(C)C1CCN(c2cnc3ccc(-c4c[nH]nc4-c4cc(Cl)c(F)cc4F)nc3c2)CC1` [Compound 6-18, 1-[6-[3-(5-chloro-2,4-difluoro-phenyl)-1H-pyrazol-4-yl]-1,5-naphthyridin-3-yl]-N,N-dimethyl-piperidin-4-amine] are 0.0398 to 0.316 nM and 25.1 to 158 nM.
For `CN(C)C1CN(c2cnc3ccc(-c4c[nH]nc4-c4cc(Cl)c(F)cc4F)nc3c2)C1` [Compound 6-19, 1-[6-[3-(5-chloro-2,4-difluoro-phenyl)-1H-pyrazol-4-yl]-1,5-naphthyridin-3-yl]-N,N-dimethyl-azetidin-3-amine], the Ki in assay [1] is 0.0398 to 0.316 nM. In addition, the IC50 in assay [2] was 25.1 to 158 nM.
Regarding `CN(C)C1(C)CN(c2cnc3ccc(-c4c[nH]nc4-c4cc(Cl)c(F)cc4F)nc3c2)C1` [Compound 6-20, 1-[6-[3-(5-chloro-2,4-difluoro-phenyl)-1H-pyrazol-4-yl]-1,5-naphthyridin-3-yl]-N,N,3-trimethyl-azetidin-3-amine], the Ki in assay [1] was 0.398 to 3.16 nM. The IC50 in assay [2] is 25.1 to 158 nM.
The matching figures for `CNC1CCN(c2cnc3ccc(-c4c[nH]nc4-c4cc(Cl)c(F)cc4F)nc3c2)CC1` [Compound 6-23, 1-(6-(3-(5-chloro-2,4-difluorophenyl)-1H-pyrazol-4-yl)-1,5-naphthyridin-3-yl)-N-methylpiperidin-4-amine]: 0.0398 to 0.316 nM and 25.1 to 158 nM.
For `CN(CCN1CCNCC1)c1cnc2ccc(-c3c[nH]nc3-c3cc(Cl)c(F)cc3F)nc2c1` [Compound 6-24, 6-[3-(5-chloro-2,4-difluoro-phenyl)-1H-pyrazol-4-yl]-N-methyl-N-(2-piperazin-1-ylethyl)-1,5-naphthyridin-3-amine], in assay [1], the Ki was 0.398 to 3.16 nM. Further, in assay [2], the IC50 was 25.1 to 158 nM.
Turning to `CNC(=O)[C@@H]1CN(c2cnc3ccc(-c4c[nH]nc4-c4cc(Cl)c(F)cc4F)nc3c2)CCN1` [Compound 6-26, (2S)-4-[6-[3-(5-chloro-2,4-difluoro-phenyl)-1H-pyrazol-4-yl]-1,5-naphthyridin-3-yl]-N-methyl-piperazine-2-carboxamide], the Ki in assay [1] was 0.398 to 3.16 nM. For the same molecule, the IC50 in assay [2] was 25.1 to 158 nM.
Consider `COC(=O)[C@H]1CN(c2cnc3ccc(-c4c[nH]nc4-c4cc(Cl)c(F)cc4F)nc3c2)CCN1` [Compound 6-27, methyl (2R)-4-[6-[3-(5-chloro-2,4-difluoro-phenyl)-1H-pyrazol-4-yl]-1,5-naphthyridin-3-yl]piperazine-2-carboxylate], for which, in assay [1], the Ki was 0.398 to 3.16 nM. The IC50 in assay [2] was 25.1 to 158 nM.
In the case of `COC(=O)[C@@H]1CN(c2cnc3ccc(-c4c[nH]nc4-c4cc(Cl)c(F)cc4F)nc3c2)CCN1` [Compound 6-28, methyl (2S)-4-[6-[3-(5-chloro-2,4-difluoro-phenyl)-1H-pyrazol-4-yl]-1,5-naphthyridin-3-yl]piperazine-2-carboxylate], in assay [1], the Ki was 0.398 to 3.16 nM. Moreover, the IC50 in assay [2] was 25.1 to 158 nM.
The matching figures for `CNCC1CN(c2cnc3ccc(-c4c[nH]nc4-c4cc(Cl)c(F)cc4F)nc3c2)C1` [Compound 6-29, 1-[1-[6-[3-(5-chloro-2,4-difluoro-phenyl)-1H-pyrazol-4-yl]-1,5-naphthyridin-3-yl]azetidin-3-yl]-N-methyl-methanamine]: ≤ 0.0316 nM and ≤ 20 nM.
